Measurements as given in ChEMBL document CHEMBL5728723, “Pyrimidine compounds and pyrimido indole compounds and methods of use” (2021).

Legend:
[1] = target: Platelet-derived growth factor receptor beta (Homo sapiens, UniProt P09619); test: (§1) Kinase Inhibition Assay: Table 9: Compounds 1 and 2, Section D., (see FIG. 4, bottom row, far right column) each inhibit VEGFR-2 and PDGFR-β for antiangiogenic effects and also inhibit human TS (hTS) for cytotoxic effects in single agents.12 The inhibitory potency of both these single agents against VEGFR-2, PDGFR-β, and hTS was better than or close to standards (Tables 9, 10).
[2] = target: Vascular endothelial growth factor receptor 1 (Homo sapiens, UniProt P17948); test: as §1
[3] = target: Vascular endothelial growth factor receptor 2 (Homo sapiens, UniProt P35968); test: as §1
[4] = target: Epidermal growth factor receptor (Homo sapiens, UniProt P00533); test: as §1
Sequence of Epidermal growth factor receptor (P00533 whole entry): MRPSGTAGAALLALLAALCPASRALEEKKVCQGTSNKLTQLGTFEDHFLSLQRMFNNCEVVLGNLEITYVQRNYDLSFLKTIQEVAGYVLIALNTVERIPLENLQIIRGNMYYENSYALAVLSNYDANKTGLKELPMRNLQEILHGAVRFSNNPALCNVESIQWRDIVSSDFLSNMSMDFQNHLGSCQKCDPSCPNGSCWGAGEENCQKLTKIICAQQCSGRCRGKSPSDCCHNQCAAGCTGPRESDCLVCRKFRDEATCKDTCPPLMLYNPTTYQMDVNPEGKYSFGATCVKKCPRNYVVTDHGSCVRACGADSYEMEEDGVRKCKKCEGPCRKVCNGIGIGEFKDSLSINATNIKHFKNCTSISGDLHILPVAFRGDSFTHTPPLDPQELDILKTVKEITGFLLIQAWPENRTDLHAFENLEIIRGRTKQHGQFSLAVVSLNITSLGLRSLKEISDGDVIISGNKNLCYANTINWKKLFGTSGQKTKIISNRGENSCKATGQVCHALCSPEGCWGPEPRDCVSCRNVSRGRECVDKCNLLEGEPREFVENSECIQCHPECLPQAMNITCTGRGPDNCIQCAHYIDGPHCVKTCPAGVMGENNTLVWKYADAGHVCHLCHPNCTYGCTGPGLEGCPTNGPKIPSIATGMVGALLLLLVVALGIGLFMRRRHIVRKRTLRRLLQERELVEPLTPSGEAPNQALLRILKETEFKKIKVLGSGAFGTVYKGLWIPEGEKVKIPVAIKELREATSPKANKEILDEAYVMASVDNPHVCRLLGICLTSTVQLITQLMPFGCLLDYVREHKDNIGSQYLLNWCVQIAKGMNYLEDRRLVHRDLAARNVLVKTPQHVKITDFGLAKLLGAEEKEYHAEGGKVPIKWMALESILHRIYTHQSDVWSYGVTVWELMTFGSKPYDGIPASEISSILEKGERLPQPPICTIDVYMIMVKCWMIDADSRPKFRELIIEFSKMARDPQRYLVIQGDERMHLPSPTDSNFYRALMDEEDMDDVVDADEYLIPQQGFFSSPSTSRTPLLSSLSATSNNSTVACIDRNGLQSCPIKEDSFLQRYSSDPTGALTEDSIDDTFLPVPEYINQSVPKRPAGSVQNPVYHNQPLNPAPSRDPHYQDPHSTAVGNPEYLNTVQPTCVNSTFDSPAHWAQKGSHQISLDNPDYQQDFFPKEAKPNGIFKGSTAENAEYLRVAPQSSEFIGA

Sequence of Vascular endothelial growth factor receptor 2 (P35968 whole entry): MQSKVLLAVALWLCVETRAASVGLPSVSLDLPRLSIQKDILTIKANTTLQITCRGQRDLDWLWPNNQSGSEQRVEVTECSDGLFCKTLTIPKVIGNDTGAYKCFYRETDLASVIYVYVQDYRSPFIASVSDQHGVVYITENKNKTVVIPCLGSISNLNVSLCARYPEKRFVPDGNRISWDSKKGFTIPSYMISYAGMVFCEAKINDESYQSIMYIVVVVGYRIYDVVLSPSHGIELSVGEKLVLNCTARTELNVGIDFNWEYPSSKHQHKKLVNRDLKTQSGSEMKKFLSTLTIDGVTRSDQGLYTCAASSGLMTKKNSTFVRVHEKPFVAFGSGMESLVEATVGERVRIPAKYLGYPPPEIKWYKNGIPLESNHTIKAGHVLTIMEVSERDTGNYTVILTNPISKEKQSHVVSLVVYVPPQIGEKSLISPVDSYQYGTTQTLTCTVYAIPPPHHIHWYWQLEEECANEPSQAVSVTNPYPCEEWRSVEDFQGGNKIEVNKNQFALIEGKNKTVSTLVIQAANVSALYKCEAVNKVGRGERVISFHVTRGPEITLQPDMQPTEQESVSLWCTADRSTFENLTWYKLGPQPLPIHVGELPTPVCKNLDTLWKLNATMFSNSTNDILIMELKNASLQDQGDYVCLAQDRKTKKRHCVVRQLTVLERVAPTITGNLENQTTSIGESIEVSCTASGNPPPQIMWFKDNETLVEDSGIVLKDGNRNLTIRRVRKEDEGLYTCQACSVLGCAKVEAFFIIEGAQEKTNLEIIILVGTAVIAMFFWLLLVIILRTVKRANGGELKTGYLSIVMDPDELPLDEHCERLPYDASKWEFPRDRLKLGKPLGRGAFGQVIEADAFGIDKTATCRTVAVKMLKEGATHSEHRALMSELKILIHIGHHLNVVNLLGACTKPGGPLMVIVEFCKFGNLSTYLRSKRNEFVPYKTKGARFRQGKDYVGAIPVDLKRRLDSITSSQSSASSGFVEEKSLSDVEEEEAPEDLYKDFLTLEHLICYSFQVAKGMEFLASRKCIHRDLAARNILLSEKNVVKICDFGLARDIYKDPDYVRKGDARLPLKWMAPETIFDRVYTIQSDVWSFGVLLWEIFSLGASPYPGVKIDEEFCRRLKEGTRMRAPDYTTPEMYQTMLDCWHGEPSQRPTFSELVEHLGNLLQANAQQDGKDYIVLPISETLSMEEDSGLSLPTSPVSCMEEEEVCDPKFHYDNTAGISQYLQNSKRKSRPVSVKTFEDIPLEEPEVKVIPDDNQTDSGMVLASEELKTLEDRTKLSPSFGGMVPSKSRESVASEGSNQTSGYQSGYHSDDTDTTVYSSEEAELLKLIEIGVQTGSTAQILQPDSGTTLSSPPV
Sequence of Vascular endothelial growth factor receptor 1 (P17948 whole entry): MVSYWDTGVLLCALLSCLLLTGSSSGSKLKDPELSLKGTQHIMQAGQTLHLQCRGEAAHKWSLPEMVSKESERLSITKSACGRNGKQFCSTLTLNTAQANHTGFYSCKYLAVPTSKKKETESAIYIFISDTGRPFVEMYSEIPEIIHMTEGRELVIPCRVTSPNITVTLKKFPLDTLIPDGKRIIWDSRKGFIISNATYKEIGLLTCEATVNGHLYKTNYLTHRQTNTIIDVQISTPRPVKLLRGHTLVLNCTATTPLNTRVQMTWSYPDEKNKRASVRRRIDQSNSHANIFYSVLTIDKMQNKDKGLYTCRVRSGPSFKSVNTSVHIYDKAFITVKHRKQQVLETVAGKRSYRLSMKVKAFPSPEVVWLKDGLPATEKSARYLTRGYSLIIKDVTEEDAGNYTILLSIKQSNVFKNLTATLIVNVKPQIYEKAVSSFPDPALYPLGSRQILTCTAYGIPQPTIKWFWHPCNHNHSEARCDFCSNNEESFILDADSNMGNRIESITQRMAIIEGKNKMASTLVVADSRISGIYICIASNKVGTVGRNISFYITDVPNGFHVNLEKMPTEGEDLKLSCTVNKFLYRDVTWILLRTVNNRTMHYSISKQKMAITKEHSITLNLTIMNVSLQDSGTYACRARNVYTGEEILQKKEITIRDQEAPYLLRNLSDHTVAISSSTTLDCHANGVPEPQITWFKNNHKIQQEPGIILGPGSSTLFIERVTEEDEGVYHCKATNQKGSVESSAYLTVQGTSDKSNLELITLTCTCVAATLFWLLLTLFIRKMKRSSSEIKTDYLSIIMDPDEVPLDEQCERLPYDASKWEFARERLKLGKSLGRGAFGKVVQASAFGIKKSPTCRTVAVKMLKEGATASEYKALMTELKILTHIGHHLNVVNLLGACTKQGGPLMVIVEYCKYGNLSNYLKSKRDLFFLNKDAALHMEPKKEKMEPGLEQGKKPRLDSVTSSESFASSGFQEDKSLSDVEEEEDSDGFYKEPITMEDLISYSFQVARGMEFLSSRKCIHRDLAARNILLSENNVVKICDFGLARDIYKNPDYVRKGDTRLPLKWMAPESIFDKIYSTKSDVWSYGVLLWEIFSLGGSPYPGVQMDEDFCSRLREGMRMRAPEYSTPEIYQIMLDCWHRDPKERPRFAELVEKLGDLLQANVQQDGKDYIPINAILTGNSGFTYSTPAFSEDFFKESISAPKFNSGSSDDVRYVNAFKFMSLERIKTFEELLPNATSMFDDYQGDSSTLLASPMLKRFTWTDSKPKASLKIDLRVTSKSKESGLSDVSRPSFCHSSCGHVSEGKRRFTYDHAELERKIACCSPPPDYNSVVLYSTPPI
Sequence of Platelet-derived growth factor receptor beta (P09619 whole entry): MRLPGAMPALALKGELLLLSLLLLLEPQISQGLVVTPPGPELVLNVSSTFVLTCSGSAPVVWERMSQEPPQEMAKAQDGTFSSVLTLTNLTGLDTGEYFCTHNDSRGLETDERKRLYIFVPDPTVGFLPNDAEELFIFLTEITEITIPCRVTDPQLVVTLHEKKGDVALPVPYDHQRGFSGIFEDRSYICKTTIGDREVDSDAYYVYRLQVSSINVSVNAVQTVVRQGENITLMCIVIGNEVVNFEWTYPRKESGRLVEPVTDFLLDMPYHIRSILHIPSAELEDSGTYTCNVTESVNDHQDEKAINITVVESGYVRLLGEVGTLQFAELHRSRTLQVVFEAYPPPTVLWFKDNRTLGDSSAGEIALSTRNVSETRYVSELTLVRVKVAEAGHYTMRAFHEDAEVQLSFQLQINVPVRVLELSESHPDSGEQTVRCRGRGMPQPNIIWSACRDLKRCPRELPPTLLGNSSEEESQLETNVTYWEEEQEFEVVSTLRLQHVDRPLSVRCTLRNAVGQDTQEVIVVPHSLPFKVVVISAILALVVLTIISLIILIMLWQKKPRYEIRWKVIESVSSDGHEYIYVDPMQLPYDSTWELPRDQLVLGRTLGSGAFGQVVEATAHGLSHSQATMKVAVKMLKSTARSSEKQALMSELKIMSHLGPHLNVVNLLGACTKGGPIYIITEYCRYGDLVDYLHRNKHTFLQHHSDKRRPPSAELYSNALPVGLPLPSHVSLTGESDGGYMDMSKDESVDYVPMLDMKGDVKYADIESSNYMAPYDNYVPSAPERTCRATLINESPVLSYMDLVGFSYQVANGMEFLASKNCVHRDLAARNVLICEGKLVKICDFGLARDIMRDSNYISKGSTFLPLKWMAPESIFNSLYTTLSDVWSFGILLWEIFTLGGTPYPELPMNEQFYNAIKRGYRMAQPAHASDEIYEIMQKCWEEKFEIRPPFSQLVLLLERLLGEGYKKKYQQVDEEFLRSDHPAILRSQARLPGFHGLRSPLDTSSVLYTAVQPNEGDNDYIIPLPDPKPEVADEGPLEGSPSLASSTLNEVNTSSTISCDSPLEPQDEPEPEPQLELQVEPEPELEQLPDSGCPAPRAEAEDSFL

Row | Structure (SMILES) | IC50 [1] | IC50 [2] | IC50 [3] | IC50 [4]
1 | COc1ccc(Sc2sc3nc(N)nc(N)c3c2C)cc1OC | 2.8 µM | 118 µM | 22.6 µM | –
2 | COc1cccc(Sc2sc3nc(N)nc(N)c3c2C)c1 | 40.3 µM | 160 µM | 56.3 µM | 10.4 µM
